In ChEMBL document CHEMBL1144272, “Generation of a new class of hNK(2) receptor ligands using the 'fragment approach'” (Bioorg Med Chem Lett, 2005) one finds Ki data, which are given here for 12 molecules.

Bounds are passed on as bounds.

For the test, the target named is T1, Substance-K receptor (Homo sapiens, UniProt P21452).
T1 sequence (P21452 whole entry): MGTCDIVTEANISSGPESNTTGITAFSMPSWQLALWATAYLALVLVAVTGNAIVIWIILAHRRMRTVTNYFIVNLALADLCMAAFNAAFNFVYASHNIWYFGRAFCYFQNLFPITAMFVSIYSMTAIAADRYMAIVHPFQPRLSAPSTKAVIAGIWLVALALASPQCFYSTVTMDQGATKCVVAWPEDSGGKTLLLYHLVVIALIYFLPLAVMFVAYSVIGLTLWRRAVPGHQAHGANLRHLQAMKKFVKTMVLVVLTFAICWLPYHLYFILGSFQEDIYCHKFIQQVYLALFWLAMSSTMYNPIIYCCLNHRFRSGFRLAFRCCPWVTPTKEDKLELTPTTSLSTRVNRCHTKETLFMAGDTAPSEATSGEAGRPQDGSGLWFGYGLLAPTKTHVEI
Description: Binding affinity for human tachykinin receptor 2 was measured by using [125I]NKA as radio ligand.
As a reminder, the Ki is a measure of affinity in units of concentration, obtained from inhibition or displacement. A low value points to tighter binding. Turning to `O=C(NCCCN1CCOCC1)[C@@H](Cc1ccccc1)NC(=O)N1CCN(c2ccccc2)CC1`, the Ki is more than 3 µM.

On to `O=C(Nc1ccccc1)N[C@H](Cc1ccccc1)C(=O)NCCCN1CCOCC1`, for which the Ki is more than 10 µM.

The molecule `O=C(NCCCN1CCOCC1)[C@H](Cc1ccccc1)NC(=O)N1CCN(c2ccccc2)CC1` returned a Ki of more than 3 µM.

The molecule `O=C(NCCCN1CCOCC1)[C@H](Cc1ccccc1)NC(=O)N1CCC(Cc2ccccc2)CC1` returned an inhibition constant Ki of 1.6 µM.

For `O=C(NCCCN1CCOCC1)[C@@H](Cc1ccccc1)NC(=O)N1CCC(Cc2ccccc2)CC1`, the affinity corresponds to a Ki of 2 µM.

Consider `O=C(NCCCN1CCOCC1)[C@@H](Cc1ccccc1)NC(=O)N(c1ccccc1)c1ccccc1`, for which the Ki was more than 3 µM.

`O=C(NCCCN1CCOCC1)[C@H](Cc1ccccc1)NC(=O)N(c1ccccc1)c1ccccc1`: the Ki is more than 3 µM.

In turn, `O=C(Nc1ccccc1)N[C@@H](Cc1ccccc1)C(=O)NCCCN1CCOCC1` yielded a Ki of more than 10 µM.

Take `O=C(Nc1ccc(OCc2ccccc2)cc1)N[C@@H](Cc1ccccc1)C(=O)NCCCN1CCOCC1` (stereo in doubt; 31a (L)): the Ki was more than 1 µM.

`O=C(Nc1ccc(OCc2ccccc2)cc1)N[C@H](Cc1ccccc1)C(=O)NCCCN1CCOCC1` (stereo in doubt; 31b (D)) registered a Ki of 0.1 µM.

On to `O=C(Nc1ccc(OCc2ccccc2)cc1)N[C@@H](Cc1ccccc1)C(=O)NCCCN1CCOCC1` (stereo in doubt; 32a (L)), for which the Ki is 1.2 µM.

In turn, `O=C(Nc1ccc(OCc2ccccc2)cc1)N[C@H](Cc1ccccc1)C(=O)NCCCN1CCOCC1` (stereo in doubt; 32b (D)) returned a Ki of 0.63 µM.
